Test results: US20260103465A1, “GLYCOGEN SYNTHASE KINASE 3 INHIBITORS AND USES THEREOF” (The Broad Institute, Inc., priority 2023, published 2026)
Read-outs that look alike come from different tables or passages of the source.

What was measured:
[1] = target: T1, GSK3a (GST-full length GSK3a) (Homo sapiens, UniProt P49840); experiment: GSK3a TR-FRET kinase inhibition assay; type: biochemical
T1 construct: GST-full length GSK3a [SignalChem G08-10G]; purchased SignalChem G08-10G
Summary of the method: (§1)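 GST-tagged full-length human kinase (1 nM), pre-incubated 30 min with compound, then reacted 100 min at ambient temperature at pH 7.5 with 200 nM biotinylated phospho-S645 glycogen synthase 631–650 peptide and ATP at 2 μM–1 mM. After EDTA quench, Tb-pSer641 antibody/streptavidin-d2 TR-FRET 665/615 ratio fitted for IC50.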

[2] = target: T2, GSK3b (GST-full length GSK3b) (Homo sapiens, UniProt P49841); experiment: GSK3b TR-FRET kinase inhibition assay; type: biochemical
T2 construct: GST-full length GSK3b: [SignalChem G08-9G]; purchased SignalChem G08-9G
T2 sequence (P49841 whole entry): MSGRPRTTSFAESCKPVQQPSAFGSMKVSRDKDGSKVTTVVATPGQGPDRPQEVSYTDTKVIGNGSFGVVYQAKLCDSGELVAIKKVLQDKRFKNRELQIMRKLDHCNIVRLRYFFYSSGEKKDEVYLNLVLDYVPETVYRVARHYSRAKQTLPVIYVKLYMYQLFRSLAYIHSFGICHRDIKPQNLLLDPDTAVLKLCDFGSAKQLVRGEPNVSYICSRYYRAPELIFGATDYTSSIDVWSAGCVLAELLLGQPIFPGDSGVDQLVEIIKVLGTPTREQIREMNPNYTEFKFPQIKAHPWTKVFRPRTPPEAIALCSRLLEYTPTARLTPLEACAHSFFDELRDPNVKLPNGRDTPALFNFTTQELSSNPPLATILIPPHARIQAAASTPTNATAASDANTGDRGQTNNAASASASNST
Summary of the method: as §1

[3] = system: MDR1-MDCK cell monolayers; experiment: MDR1/MDCK permeability assay; type: in vitro ADME; details: for MDCK Permeability (MDR1-MDCK); Mean; Papp(A-B) (10^−6 cm/s): A to B; for MDCK Permeability (MDR1-MDCK); Mean; Papp(B-A) (10^−6 cm/s): B to A
Description: The MDR1/MDCK assay is run at WuXi and Absorption Systems. This assay is used to determine the blood-brain barrier (BBB) penetration potential of a test compound using MDR1-MDCK cell monolayers. Catalog number EA203.
• The percent recovery of the test compound from the Transwell® wells containing MDR1-MDCK cell monolayers • The apparent permeability (Papp) in both directions • The efflux ratio (Papp B to A)/(Papp A to B) • The blood-brain barrier penetration potential classification: • High when • Papp A to B≥3.0×10^−6 cm/s, and efflux<3.0 • Moderate when • Papp A to B≥3.0×10^−6 cm/s, and 10>efflux≥3.0 • Low when either • Papp A to B≥3.0×10^−6 cm/s, and […], or when • Papp A to B<[…].
• Test compound at 5 μM in HBSSg with maximum DMSO concentration not greater than 1%.
• Confluent monolayers of MDR1-MDCK cells, 7 to 11 days old.
• Receiver well with 1% BSA in modified Hanks buffer (HBSSg) • Apical and basolateral side at pH 7.4 • Dose two monolayers in each direction (N=2) • Dose apical side for (A to B) assessment • Dose basolateral side for (B to A) assessment • Sample both apical and basolateral sides at 120 minutes • Determine the concentrations of test compound using a generic LC-MS/MS method with a minimum 4 point calibration curve.
• The quality of the cell monolayer batch is verified using control compounds before monolayers are released for use • The quality of each monolayer used in the assay is verified by a TEER measurement and by calculating the Papp for a control compound.

[4] = Human liver microsomal stability; type: in vitro ADME; details: human liver microsomes; Table 4
Protocol: Stability of compound (5 μL of a 10 mM DMSO solution) in human liver microsomes was tested in duplicate by incubating compound at 1 μM for 60 minutes at 37° C. Compound level at 60 minutes was compared to level at 0 minutes, and percent remaining was calculated. Order by selecting Microsomal Stability in Prometheus, checking boxes for desired species. Assay Controls: microsomes with NADPH without compound-matrix interference. Microsomes plus compound without NADPH—non-enzymatic instability.

[5] = 1 mM ATP, Table 3, read-out: GSK3a TR-FRET 1 mM ATP Average IC50
[6] = 1 mM ATP, Table 3, read-out: GSK3b TR-FRET 1 mM ATP Average IC50
[7] = 4 μM ATP, read-out: GSK3α TR-FRET 4 μM ATP GMean IC50
[8] = 2 μM ATP, read-out: GSK3β TR-FRET 2 μM ATP GMean IC50

T1 sequence (P49840 whole entry): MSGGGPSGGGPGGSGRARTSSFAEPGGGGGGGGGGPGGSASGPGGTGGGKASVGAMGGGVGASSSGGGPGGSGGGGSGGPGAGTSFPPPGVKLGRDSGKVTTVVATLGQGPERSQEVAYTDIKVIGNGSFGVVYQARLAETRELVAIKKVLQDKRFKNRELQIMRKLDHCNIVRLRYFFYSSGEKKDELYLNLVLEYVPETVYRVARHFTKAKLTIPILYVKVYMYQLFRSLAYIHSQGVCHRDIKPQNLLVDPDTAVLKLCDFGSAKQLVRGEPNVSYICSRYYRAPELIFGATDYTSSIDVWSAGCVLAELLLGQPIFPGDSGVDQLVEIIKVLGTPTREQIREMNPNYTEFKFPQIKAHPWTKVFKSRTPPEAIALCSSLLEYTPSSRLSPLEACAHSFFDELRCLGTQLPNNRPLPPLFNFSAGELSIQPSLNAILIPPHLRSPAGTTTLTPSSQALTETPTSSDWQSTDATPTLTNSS

| SMILES | IC50 [1, 7] [µM] | IC50 [2, 8] [µM] | also measured |
| --- | --- | --- | --- |
| CC1(C)CC(=O)C2=C(C1)Nc1nccc(C#N)c1C2(C)c1ccccc1 (single isomer, unassigned) [Compound 108A] |  |  | IC50 [1, 5]: 0.1 to 1 µM; IC50 [2, 6]: 0.1 to 1 µM; MDCK Permeability (MDR1-MDCK); Mean; Papp(A-B) (10^−6 cm/s) ([3]; Table 3): 18 10^−6 cm/s; MDCK Permeability (MDR1-MDCK); Mean; Papp(B-A) (10^−6 cm/s) ([3]; Table 3): 56 10^−6 cm/s; MIDCK Permeability (MDR1-MDCK); Mean; P. Ratio(B-A/A-B) Efflux Ratio ([3]; Papp B-A/A-B, Table 3): 3.2 |
| CCC1(c2ccccc2)C2=C(CC3(CCC3)CC2=O)Nc2ncccc21 (single isomer, unassigned) [Compound 110B] |  |  | Microsome Stability (Human) (DMPK_BIIB); Mean; in vitro t1/2 [4]: 1.7 min; MDCK Permeability (MDR1-MDCK); Mean; Papp(A-B) (10^−6 cm/s) ([3]; Table 4): 13 10^−6 cm/s; MDCK Permeability (MDR1-MDCK); Mean; Papp(B-A) (10^−6 cm/s) ([3]; Table 4): 27 10^−6 cm/s; MDCK Permeability (MDR1-MDCK); Mean; P. Ratio(B-A/A-B) Efflux Ratio ([3]; Papp B-A/A-B, Table 4): 2.1 |
| CC1(C)CC(=O)C2=C(C1)Nc1ncc(F)c(C#N)c1C2(C)c1ccccc1 (single isomer, unassigned) [Compound 121A] |  |  | IC50 [1, 5]: ≤ 0.1 µM; IC50 [2, 6]: ≤ 0.1 µM; MDCK Permeability (MDR1-MDCK); Mean; Papp(A-B) (10^−6 cm/s) ([3]; Table 3): 22 10^−6 cm/s; MDCK Permeability (MDR1-MDCK); Mean; Papp(B-A) (10^−6 cm/s) ([3]; Table 3): 63 10^−6 cm/s; MIDCK Permeability (MDR1-MDCK); Mean; P. Ratio(B-A/A-B) Efflux Ratio ([3]; Papp B-A/A-B, Table 3): 2.9 |
| CC1(C)CC(=O)C2=C(C1)Nc1ncc(F)cc1C2(C)c1cccc(S(C)(=O)=O)c1 (single isomer, unassigned) [Compound 139A] |  |  | IC50 [1, 5]: ≤ 0.1 µM; IC50 [2, 6]: ≤ 0.1 µM; MDCK Permeability (MDR1-MDCK); Mean; Papp(A-B) (10^−6 cm/s) ([3]; Table 3): 0.52 10^−6 cm/s; MDCK Permeability (MDR1-MDCK); Mean; Papp(B-A) (10^−6 cm/s) ([3]; Table 3): 75 10^−6 cm/s; MIDCK Permeability (MDR1-MDCK); Mean; P. Ratio(B-A/A-B) Efflux Ratio ([3]; Papp B-A/A-B, Table 3): 144 |
| CCC1(c2ccccc2)C2=C(CC(C)(C)NC2=O)Nc2ncc(F)cc21 (single isomer, unassigned) [Compound 1007A] | > 5 | > 5 |  |
| CCC1(c2cccc(C(C)C)c2)C2=C(CC(C)(C)CC2=O)Nc2ncccc21 (single isomer, unassigned) [Compound 1011A] | > 5 | > 5 |  |
| CCC1(c2cccc(C(F)(F)F)c2)C2=C(CC(C)(C)CC2=O)Nc2ncccc21 (single isomer, unassigned) [Compound 1014A] | 1 to 5 | > 5 |  |
| CCC1(c2cccc(C(F)(F)F)c2)C2=C(CC(C)(C)CC2=O)Nc2ncccc21 (single isomer, unassigned) [Compound 1014B] | ≤ 0.1 | 0.1 to 1 |  |
| CCC1(c2cccc(-c3cccnc3)c2)C2=C(CC(C)(C)CC2=O)Nc2ncccc21 (single isomer, unassigned) [Compound 1015B] | 1 to 5 | > 5 |  |
| CCC1(c2cccc(-c3ccccn3)c2)C2=C(CC(C)(C)CC2=O)Nc2ncccc21 (single isomer, unassigned) [Compound 1016B] | 1 to 5 | > 5 |  |
| CCC1(c2cccc(-c3ccncc3)c2)C2=C(CC(C)(C)CC2=O)Nc2ncccc21 (single isomer, unassigned) [Compound 1017B] | > 5 | > 5 |  |
| CCC1(c2cccc(-c3cnn(C)c3)c2)C2=C(CC(C)(C)CC2=O)Nc2ncccc21 (single isomer, unassigned) [Compound 1018A] | > 5 | > 5 |  |
| CCC1(c2cccc(-c3cnn(C)c3)c2)C2=C(CC(C)(C)CC2=O)Nc2ncccc21 (single isomer, unassigned) [Compound 1018B] | ≤ 0.1 | ≤ 0.1 |  |
| CCC1(c2cccc(-c3ccnn3C)c2)C2=C(CC(C)(C)CC2=O)Nc2ncccc21 (single isomer, unassigned) [Compound 1019B] | > 5 | > 5 |  |
| CCC1(c2cccc(-c3ccncc3C)c2)C2=C(CC(C)(C)CC2=O)Nc2ncccc21 (single isomer, unassigned) [Compound 1020A] | 1 to 5 | > 5 |  |
| CCC1(c2cccc(-c3ccnc(C)c3)c2)C2=C(CC(C)(C)CC2=O)Nc2ncccc21 (single isomer, unassigned) [Compound 1021A] | > 5 | > 5 |  |
| CCC1(c2cccc(-c3ccnc(C)c3)c2)C2=C(CC(C)(C)CC2=O)Nc2ncccc21 (single isomer, unassigned) [Compound 1021B] | 0.1 to 1 | 0.1 to 1 |  |
| CCC1(c2cccc(-c3cnnc(C)c3)c2)C2=C(CC(C)(C)CC2=O)Nc2ncccc21 (single isomer, unassigned) [Compound 1022A] | 0.1 to 1 | 0.1 to 1 |  |
| CCC1(c2cccc(-c3cnnc(C)c3)c2)C2=C(CC(C)(C)CC2=O)Nc2ncccc21 (single isomer, unassigned) [Compound 1022B] | > 5 | > 5 |  |
| CCC1(c2cccc(-c3cn(C)nc3C)c2)C2=C(CC(C)(C)CC2=O)Nc2ncccc21 (single isomer, unassigned) [Compound 1023B] | 0.1 to 1 | 1 to 5 |  |
| CCC1(c2cccc(-c3cc(C)nn3C)c2)C2=C(CC(C)(C)CC2=O)Nc2ncccc21 (single isomer, unassigned) [Compound 1024A] | 1 to 5 | > 5 |  |

Further lines, with some results ahead:

| IC50 [1, 7] [µM] | IC50 [2, 8] [µM] | SMILES | also measured |
| --- | --- | --- | --- |
| 0.1 to 1 | > 5 | CCC1(c2cccc(-c3ccnn3C)c2)C2=C(CC(C)(C)CC2=O)Nc2ncc(F)cc21 (single isomer, unassigned) [Compound 1025B] |  |
| > 5 | > 5 | CCC1(c2cccc(-c3cc(C)ncc3C)c2)C2=C(CC(C)(C)CC2=O)Nc2ncccc21 (single isomer, unassigned) [Compound 1027A] |  |
| 1 to 5 | > 5 | CCC1(c2cccc(-c3ccncc3OC)c2)C2=C(CC(C)(C)CC2=O)Nc2ncccc21 (single isomer, unassigned) [Compound 1028A] |  |
| ≤ 0.1 | ≤ 0.1 | CCC1(c2cccc(-c3ccncc3OC)c2)C2=C(CC(C)(C)CC2=O)Nc2ncccc21 (single isomer, unassigned) [Compound 1028B] |  |
| 0.1 to 1 | 0.1 to 1 | CCC1(c2cccc(-c3ccncc3C)c2)C2=C(CC(C)(C)CC2=O)Nc2ncc(F)cc21 (single isomer, unassigned) [Compound 1031A] |  |
| ≤ 0.1 | 0.1 to 1 | CCC1(c2cccc(-c3cn(C)nc3C)c2)C2=C(CC(C)(C)CC2=O)Nc2ncc(F)cc21 (single isomer, unassigned) [Compound 1032A] |  |
| 1 to 5 | > 5 | CCC1(c2cccc(-c3cc(C)nn3C)c2)C2=C(CC(C)(C)CC2=O)Nc2ncc(F)cc21 (single isomer, unassigned) [Compound 1033A] |  |
| ≤ 0.1 | ≤ 0.1 | CCC1(c2cccc(-c3cc(C)nn3C)c2)C2=C(CC(C)(C)CC2=O)Nc2ncc(F)cc21 (single isomer, unassigned) [Compound 1033B] |  |
| > 5 | > 5 | CCC1(c2cccc(-c3ccnc4c3CCC4)c2)C2=C(CC(C)(C)CC2=O)Nc2ncccc21 (single isomer, unassigned) [Compound 1034A] |  |
| 1 to 5 | 1 to 5 | CCC1(c2cccc(-c3ccnc(C)c3C)c2)C2=C(CC(C)(C)CC2=O)Nc2ncc(F)cc21 (single isomer, unassigned) [Compound 1035A] |  |
| 1 to 5 | 1 to 5 | CCC1(c2cccc(-c3ccnc(C)c3C)c2)C2=C(CC(C)(C)CC2=O)Nc2ncc(F)cc21 (single isomer, unassigned) [Compound 1035B] |  |
| 1 to 5 | 1 to 5 | CCC1(c2cccc(-c3ccncc3OC)c2)C2=C(CC(C)(C)CC2=O)Nc2ncc(F)cc21 (single isomer, unassigned) [Compound 1037A] |  |
| 0.1 to 1 | 0.1 to 1 | CCC1(c2cccc(-c3ccnc4c3CCCC4)c2)C2=C(CC(C)(C)CC2=O)Nc2ncccc21 (single isomer, unassigned) [Compound 1039A] |  |
| > 5 | > 5 | CC1(C)CC(=O)C2=C(C1)Nc1ncccc1C2c1ccccc1 (stereo not drawn) [Compound C1, reference compound] |  |
